The target in test [1] is T1, LXRβ (Homo sapiens, UniProt P55055).
T1 construct: gene NR1H2
T1 sequence (P55055 1-460): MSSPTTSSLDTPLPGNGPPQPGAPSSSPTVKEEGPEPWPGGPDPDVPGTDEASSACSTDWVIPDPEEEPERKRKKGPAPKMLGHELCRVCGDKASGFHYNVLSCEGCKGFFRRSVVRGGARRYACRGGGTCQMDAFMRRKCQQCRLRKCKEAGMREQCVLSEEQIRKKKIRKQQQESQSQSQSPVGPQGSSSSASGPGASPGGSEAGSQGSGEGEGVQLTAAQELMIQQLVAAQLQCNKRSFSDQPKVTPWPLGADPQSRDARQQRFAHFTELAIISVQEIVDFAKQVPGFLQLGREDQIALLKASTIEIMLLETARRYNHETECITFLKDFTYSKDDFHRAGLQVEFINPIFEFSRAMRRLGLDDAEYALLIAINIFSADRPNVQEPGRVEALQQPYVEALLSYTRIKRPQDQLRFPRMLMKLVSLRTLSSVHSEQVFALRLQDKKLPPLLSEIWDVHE
In words: TR-FRET coactivator assay (positive control, parent agonist). It is filed as binding. On the technique in general: Time-resolved FRET reads energy transfer from a long-lived donor to a nearby acceptor.

The target of test [2] is T1, LXRβ. The test is described as follows: TR-FRET coactivator assay. It counts as binding.

On to `O=C(O)Cc1cccc(OCCCN(Cc2cccc(C(F)(F)F)c2Cl)CC(c2ccccc2)c2ccccc2)c1` [GW3965], for which the EC50 at LXRβ [1] stood at 20 ± 7.2 nM.
Compound `Cc1ncsc1-c1ccc(CNC(=O)[C@@H]2C[C@@H](O)CN2C(=O)[C@@H](NC(=O)COCCOCCOCCOCCOCCNC(=O)Cc2cccc(OCCCN(Cc3cccc(C(F)(F)F)c3Cl)CC(c3ccccc3)c3ccccc3)c2)C(C)(C)C)cc1` [compound 3, GW3965-PEG5-VH032] showed an EC50 on LXRβ [2] of 31 ± 4.4 nM.

In general, EC50 refers to the midpoint of the concentration-response curve.

Values taken from publication PMC8187946, “Development of Agonist-Based PROTACs Targeting Liver X Receptor” (Frontiers in Chemistry, 2021).
